Reference: patent publication US8883963B2 (Cadila Healthcare Limited, priority 2007, dated 2014)

Assays:
[1] = Stability in simulated intestinal fluid; assay type: in vitro ADME; conditions: 2 μM peptidomimetic, simulated intestinal fluid pH 7.5, 37° C.; for half-life at 2 μM: read-out: half-life (t1/2) when incubated with simulated intestinal fluid
Description: (§1) Reactions were terminated by the addition of TFA/H2O (15 mL, 10% (v/v)). […] The column was equilibrated with TFA/H20, at a flow rate of 1 mL/min.

[2] = Stability in simulated gastric fluid; assay type: in vitro ADME; conditions: 2 μM peptidomimetic, simulated gastric fluid pH 1.5, 37° C.; for half-life at 2 μM: read-out: half-life (t1/2) when incubated with simulated gastric fluid
Description: as §1

[3] = molecular target: T1, Human GLP-1 receptor (Homo sapiens, UniProt P43220); assay: In vitro Human GLP-1 R agonist activity (cyclic AMP determination) in CHO/human GLP1R cells; assay type: cell-based
T1 construct: The full-length cDNA was cloned in pcDNA3.1(+); expressed in transfected cells

[4] = Stability in human plasma; assay type: in vitro ADME; conditions: 2 μM peptidomimetic, pooled human plasma, 37° C.; for half-life at 2 μM: pH 7.8, read-out: half-life (t1/2) when incubated with human plasma
Description: as §1

[5] = molecular target: DPP IV (Homo sapiens, UniProt P27487); assay: Stability against DPP IV enzyme; assay type: in vitro ADME; conditions: 37° C.; for % degradation of peptidomimetics in 24 h when incubated with DPP-IV enzyme: 2 μM peptidomimetic; for half-life at 2 μM: DPP IV enzyme, pH 7.8, 2 μM peptidomimetic, read-out: half-life (t1/2) when incubated with DPP-IV enzyme
Description: as §1

[6] = Stability in liver microsomes; assay type: in vitro ADME; conditions: 2 μM peptidomimetic, human liver microsomes, 37° C.; for half-life at 2 μM: pH 7.8, read-out: half-life (t1/2) when incubated with liver microsomes
Description: as §1

[7] = molecular target: T2, human glucagon receptor (Homo sapiens, UniProt P47871); assay: In vitro human glucagon antagonist activity (inhibition of cAMP production) in CHO/human glucagon R cells; assay type: cell-based; conditions: with saturated concentration of glucagon peptide
T2 construct: The full-length cDNA was cloned in pcDNA3.1 (Invitrogen); expressed in transfected cells
T2 sequence (P47871 26-477): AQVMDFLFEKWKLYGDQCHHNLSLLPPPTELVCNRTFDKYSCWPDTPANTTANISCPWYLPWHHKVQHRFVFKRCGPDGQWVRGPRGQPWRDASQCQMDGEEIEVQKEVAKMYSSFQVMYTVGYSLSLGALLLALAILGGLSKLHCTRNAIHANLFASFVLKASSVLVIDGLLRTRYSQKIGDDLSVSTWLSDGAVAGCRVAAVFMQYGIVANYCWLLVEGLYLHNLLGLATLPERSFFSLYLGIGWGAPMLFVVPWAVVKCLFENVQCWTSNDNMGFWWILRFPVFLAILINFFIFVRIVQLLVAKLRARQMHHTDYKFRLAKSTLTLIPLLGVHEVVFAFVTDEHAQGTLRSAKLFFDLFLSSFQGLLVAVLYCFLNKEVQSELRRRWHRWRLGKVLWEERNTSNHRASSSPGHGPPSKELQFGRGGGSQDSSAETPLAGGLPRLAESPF

T1 sequence (P43220 24-463): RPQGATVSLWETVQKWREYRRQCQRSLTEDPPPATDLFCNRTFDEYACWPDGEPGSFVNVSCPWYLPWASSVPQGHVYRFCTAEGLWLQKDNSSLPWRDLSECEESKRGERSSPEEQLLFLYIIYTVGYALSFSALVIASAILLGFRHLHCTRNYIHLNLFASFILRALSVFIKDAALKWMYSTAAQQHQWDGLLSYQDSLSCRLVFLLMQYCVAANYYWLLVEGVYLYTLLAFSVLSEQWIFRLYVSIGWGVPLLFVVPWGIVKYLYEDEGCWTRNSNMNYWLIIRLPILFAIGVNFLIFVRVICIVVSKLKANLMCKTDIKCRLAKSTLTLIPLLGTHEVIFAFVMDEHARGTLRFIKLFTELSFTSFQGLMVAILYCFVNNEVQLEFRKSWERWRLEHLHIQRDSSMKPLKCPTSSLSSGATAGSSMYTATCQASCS
DPP IV, sequence (P27487 whole entry, species assumed): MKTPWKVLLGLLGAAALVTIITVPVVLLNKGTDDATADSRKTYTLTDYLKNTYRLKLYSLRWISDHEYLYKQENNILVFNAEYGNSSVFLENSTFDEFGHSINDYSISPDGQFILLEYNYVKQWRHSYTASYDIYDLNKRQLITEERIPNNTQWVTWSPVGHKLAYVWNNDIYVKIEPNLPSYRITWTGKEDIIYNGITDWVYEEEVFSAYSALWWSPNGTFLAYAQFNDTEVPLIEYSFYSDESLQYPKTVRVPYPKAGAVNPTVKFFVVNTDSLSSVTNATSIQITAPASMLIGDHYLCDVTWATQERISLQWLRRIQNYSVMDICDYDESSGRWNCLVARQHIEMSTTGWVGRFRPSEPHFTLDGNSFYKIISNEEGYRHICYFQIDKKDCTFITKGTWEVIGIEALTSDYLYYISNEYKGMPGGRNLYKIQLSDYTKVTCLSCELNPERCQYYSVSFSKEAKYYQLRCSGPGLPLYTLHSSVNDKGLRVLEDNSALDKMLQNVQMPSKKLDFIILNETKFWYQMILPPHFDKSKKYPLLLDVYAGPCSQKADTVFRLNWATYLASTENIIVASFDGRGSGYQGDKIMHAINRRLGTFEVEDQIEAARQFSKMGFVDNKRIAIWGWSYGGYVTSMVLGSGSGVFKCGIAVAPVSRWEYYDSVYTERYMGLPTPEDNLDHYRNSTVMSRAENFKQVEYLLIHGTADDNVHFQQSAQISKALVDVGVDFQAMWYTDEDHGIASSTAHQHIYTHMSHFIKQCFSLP

Structure (SMILES) | % degradation of peptidomimetics in 24 h when incubated with simulated intestinal fluid [1] [%] | half-life at 2 μM [1] [min] | % degradation of peptidomimetics in 24 h when incubated with simulated gastric fluid [2] [%] | half-life at 2 μM [2] [min] | Human GLP-1 R activity (cAMP release), % activity with respect to control ([3]; 1 nM test compound) [%] | Human GLP-1 R activity (cAMP release), % activity with respect to control ([3]; 10 nM test compound) [%] | Human GLP-1 R activity (cAMP release), % activity with respect to control ([3]; 100 nM test compound) [%] | Human GLP-1 R activity (cAMP release), % activity with respect to control ([3]; 1 μM test compound) [%] | Human GLP-1 R activity (cAMP release), % activity with respect to control ([3]; 10 μM test compound) [%] | % degradation of peptidomimetics in 24 h when incubated with human plasma [4] [%] | half-life at 2 μM [4] [min] | % degradation of peptidomimetics in 24 h when incubated with DPP-IV enzyme [5] [%] | half-life at 2 μM [5] [min] | half-life (t1/2) when incubated with liver microsomes [6] | % degradation of peptidomimetics in 24 h when incubated with liver microsomes [6] [%] | Human Glucagon receptor antagonistic activity shown as inhibition of cAMP production of Glucagon peptide ([7]; 1 nM test compound) [pmol/ml/μg prt] | Human Glucagon receptor antagonistic activity shown as inhibition of cAMP production of Glucagon peptide ([7]; 10 nM test compound) [pmol/ml/μg prt] | Human Glucagon receptor antagonistic activity shown as inhibition of cAMP production of Glucagon peptide ([7]; 100 nM test compound) [pmol/ml/μg prt] | Human Glucagon receptor antagonistic activity shown as inhibition of cAMP production of Glucagon peptide ([7]; 1 μM test compound) [pmol/ml/μg prt] | Human Glucagon receptor antagonistic activity shown as inhibition of cAMP production of Glucagon peptide ([7]; 10 μM test compound) [pmol/ml/μg prt] | further results
CCc1cc(OC)ccc1-c1ccc(CC(NC(=O)[C@H](CC(=O)O)NC(=O)[C@H](CO)NC(=O)[C@@H](NC(=O)C(C)(Cc2ccccc2F)NC(=O)[C@@H](NC(=O)CNC(=O)C(CCC#N)NC(=O)C(C)(C)NC(=O)[C@H](Cc2c[nH]cn2)NC(C)=O)[C@@H](C)O)[C@@H](C)O)C(=O)NC(CCCc2ccccc2F)C(N)=O)cc1 (single isomer, unassigned) [compound 207] | 00 | > 1440 | 00 | > 1440 | 40 ± 0.11 | 81 ± 0.09 | 89 ± 0.06 | 96 ± 0.14 | 99 ± 0.19 | 00 | > 1440 | 00 | > 1440 | (5) h | 26 | 0 | 0 | 0 | 0 | 0 | –
CCc1cc(OC)ccc1-c1ccc(CC(NC(=S)[C@H](CC(=O)O)NC(=O)[C@H](CO)NC(=O)[C@@H](NC(=O)C(C)(Cc2ccccc2F)NC(=O)[C@@H](NC(=O)CNC(=O)C(CCC#N)NC(=O)C(C)(C)NC(=O)[C@@H](N)Cc2c[nH]cn2)[C@H](C)O)[C@H](C)O)C(=S)NC(CCCc2ccccc2)C(N)=O)cc1 (single isomer, unassigned) [compound 178] | 00 | > 1440 | 00 | > 1440 | 39 ± 0.12 | 80 ± 0.15 | 86 ± 0.18 | 95 ± 0.03 | 98 ± 0.09 | 00 | > 1440 | 00 | > 1440 | (5) h | 35 | 0 | 0 | 0 | 0 | 0 | –
CCc1cc(OC)ccc1-c1ccc(CC(CNC(CCCc2ccccc2F)C(N)=O)NC[C@H](CC(=O)O)NC(=O)[C@H](CO)NC(=O)[C@@H](NC(=O)C(C)(Cc2ccccc2F)NC(=O)[C@@H](NC(=O)CNC(=O)C(CCC#N)NC(=O)C(C)(C)NC(=O)[C@@H](N)Cc2c[nH]cn2)[C@H](C)O)[C@H](C)O)cc1 (single isomer, unassigned) [compound 204] | 00 | > 1440 | 00 | > 1440 | 96 ± 0.02 | 99 ± 0.46 | 99 ± 0.41 | 99 ± 0.66 | 99 ± 0.03 | 00 | > 1440 | 00 | > 1440 | (5) h | 32 | 6 ± 0.05 | 5 ± 0.04 | 2 ± 0.16 | 0 | 0 | –
CCc1cc(OC)ccc1-c1ccc(CC(CNC(CCCc2ccccc2)C(N)=O)NC[C@H](CC(=O)O)NC(=O)[C@H](CO)NC(=O)[C@@H](NC(=O)C(C)(Cc2ccccc2F)NC(=O)[C@@H](NC(=O)CNC(=O)[C@H](CCC(N)=O)NC(=O)C(C)(C)NC(=O)[C@H](Cc2c[nH]cn2)NC(=O)OC)[C@@H](C)O)[C@@H](C)O)cc1 (single isomer, unassigned) [compound 194] | 00 | > 1440 | 43 | 240 | 38 ± 0.11 | 77 ± 0.16 | 85 ± 0.11 | 94 ± 0.08 | 97 ± 0.05 | 00 | > 1440 | 00 | > 1440 | – | 84 | 18 ± 0.12 | 16 ± 0.11 | 12 ± 0.13 | 8 ± 0.12 | 6 ± 0.18 | half-life at 2 μM [6]: 120 min
CCc1cc(OC)ccc1-c1ccc(CC(NC(=O)[C@H](CC(=O)O)NC(=O)[C@H](CO)NC(=O)[C@@H](NC(=O)[C@H](Cc2ccccc2)NC(=O)[C@@H](NC(=O)CNC(=O)[C@H](CCC(N)=O)NC(=O)C(C)(C)NC(=O)[C@@H](N)Cc2c[nH]cn2)[C@@H](C)O)[C@@H](C)O)C(=O)NC(CCCc2cccc(Cl)c2)C(N)=O)cc1 (single isomer, unassigned) [compound 19] | 41 | – | 15 | – | 99 ± 0.12 | 99 ± 0.08 | 99 ± 0.11 | 99 ± 0.12 | 99 ± 0.16 | 70 | 480 | 86 | 540 | – | 77 | 0 | 0 | 0 | 0 | 0 | half-life (t1/2) when incubated with simulated intestinal fluid [1]: (6) h; half-life (t1/2) when incubated with simulated gastric fluid [2]: (8) h; half-life at 2 μM [6]: 60 min
